Laboratory results reported in patent US20090117083A1, “IMMUNOMODULATORY ALKALOIDS” (M N L PHARMA LIMITED, priority 2004, published 2009).
Read-outs that look alike come from different tables or passages of the source.

How the values were obtained:
spleen cells = assay: Cytokine modulation in spleen cells (IFN-γ); type: cell-based, BALB/c mice
Description: BALB/c male and female mice bred and maintained at the University of Strathclyde under conventional conditions were used at varying age.
Cells suspensions were prepared by using the end of a syringe and grinding the spleen through a wire mesh. The cell suspension was then centrifuged at 1000 rpm for 5 minutes. To remove the erythrocytes, the cell pellet was resuspended in Boyle's solution (Tris 0.17M & Ammonium Chloride 0.16M) and centrifuged again for 5 minutes. The pellet was then washed in medium a further two times, then resuspended in 3 mls medium. A cell count was then carried out.
All spleen cell experiments were carried out in 96-well tissue culture plates. […] Unstimulated wells contained 100 μl of cells and 100 μl of medium. The stimulated wells contained 100 μl of cells plus 50 μl of LPS at 1 μg/ml or 50 μl anti-CD3 at 0.5 μg/ml and 50 μl of medium. The remaining wells contained 100 μl cells, 5 μl of MNLP compound and either 50 μl of anti-CD3 or medium alone.
The appropriate Mabs and standards were used according to the protocol described for IL-12 (described in Example 1, above).

α-D-glucosidase [1] = biological target: T1, α-D-glucosidase (Oryza sativa subsp. japonica, UniProt Q653V7); assay: Glycosidase inhibition: α-D-glucosidase, rice; type: biochemical, rice (Oryza sativa)
T1 construct: purchased Sigma
T1 sequence (Q653V7 34-885): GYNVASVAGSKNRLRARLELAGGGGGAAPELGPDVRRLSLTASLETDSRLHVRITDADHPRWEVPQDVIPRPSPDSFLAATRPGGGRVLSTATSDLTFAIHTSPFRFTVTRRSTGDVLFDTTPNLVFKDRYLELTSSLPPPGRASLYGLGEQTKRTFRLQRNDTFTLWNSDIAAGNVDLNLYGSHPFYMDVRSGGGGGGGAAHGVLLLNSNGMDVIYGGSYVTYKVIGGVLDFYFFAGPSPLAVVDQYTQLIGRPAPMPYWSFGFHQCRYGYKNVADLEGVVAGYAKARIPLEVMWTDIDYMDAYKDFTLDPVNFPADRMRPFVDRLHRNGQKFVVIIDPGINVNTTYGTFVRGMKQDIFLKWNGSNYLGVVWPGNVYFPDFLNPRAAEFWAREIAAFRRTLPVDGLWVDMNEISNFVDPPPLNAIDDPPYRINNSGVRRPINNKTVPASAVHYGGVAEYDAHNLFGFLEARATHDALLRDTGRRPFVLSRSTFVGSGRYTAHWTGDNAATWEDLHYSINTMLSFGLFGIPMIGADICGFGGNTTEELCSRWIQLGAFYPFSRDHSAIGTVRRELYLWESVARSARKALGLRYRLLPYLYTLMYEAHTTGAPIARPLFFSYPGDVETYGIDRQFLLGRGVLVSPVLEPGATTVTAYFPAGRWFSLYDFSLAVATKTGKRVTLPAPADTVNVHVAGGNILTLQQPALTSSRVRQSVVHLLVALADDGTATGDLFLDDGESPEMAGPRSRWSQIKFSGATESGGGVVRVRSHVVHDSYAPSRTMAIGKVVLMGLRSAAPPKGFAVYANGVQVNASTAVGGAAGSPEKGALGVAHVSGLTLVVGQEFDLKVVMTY
Description: (§1) All enzymes were purchased from Sigma, as were the appropriate p-nitrophenyl substrates. Assays were carried out in microtitre plates. Enzymes were assayed in 0.1M citric acid/0.2M di-sodium hydrogen phosphate (McIlvaine) buffers at the optimum pH for the enzyme. All assays were carried out at 20° C. For screening assays the incubation assay consisted of 10 μl of enzyme solution, 10 μl of inhibitor solution (made up in water) and 50 μl of the appropriate 5 mM p-nitrophenyl substrate (3.57 mM final conc.) made up in McIlvaine buffer at the optimum pH for the enzyme.
(§2) The reactions were stopped with 0.4M glycine (pH 10.4) during the exponential phase of the reaction, which was determined at the beginning of the assay using blanks with water, which were incubated for a range of time periods to measure the reaction rate using 5 mM substrate solution. Endpoint absorbances were read at 405 nm with a Biorad microtitre plate reader (Benchmark). Water was substituted for the inhibitors in the blanks.

α-D-glucosidase [2] = assay: Glycosidase inhibition: α-D-glucosidase, Bacillus; type: biochemical, Bacillus stearothermophilus; conditions: 1 mg/ml
Description: as §1, §2

β-D-glucosidase = assay: Glycosidase inhibition: β-D-glucosidase, almond; type: biochemical, Almonds (Prunus sp.); conditions: 1 mg/ml
Description: as §1, §2

α-D-galactosidase = biological target: T2, α-D-galactosidase (Coffea arabica, UniProt Q42656); assay: Glycosidase inhibition: α-D-galactosidase; type: biochemical, Green coffee beans (Coffea sp.)
T2 construct: purchased Sigma
T2 sequence (Q42656 16-378): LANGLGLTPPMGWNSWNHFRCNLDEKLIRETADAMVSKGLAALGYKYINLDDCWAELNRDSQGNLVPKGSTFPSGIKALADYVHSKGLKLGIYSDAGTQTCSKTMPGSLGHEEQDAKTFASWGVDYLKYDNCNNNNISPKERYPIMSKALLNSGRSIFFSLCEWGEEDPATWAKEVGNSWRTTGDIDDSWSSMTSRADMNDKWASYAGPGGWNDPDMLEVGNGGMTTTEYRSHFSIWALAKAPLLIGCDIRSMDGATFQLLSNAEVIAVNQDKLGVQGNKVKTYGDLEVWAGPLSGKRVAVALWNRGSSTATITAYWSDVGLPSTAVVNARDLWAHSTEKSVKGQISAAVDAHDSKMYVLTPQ
Description: as §1, §2

Naringinase = assay: Glycosidase inhibition: Naringinase; type: biochemical, Penecillium decumbens; conditions: 1 mg/ml
Description: as §1, §2

α-L-fucosidase = biological target: T3, α-L-fucosidase (Bos taurus, UniProt Q2KIM0); assay: Glycosidase inhibition: α-L-fucosidase; type: biochemical, Bovine
T3 construct: purchased Sigma
T3 sequence (Q2KIM0 23-468): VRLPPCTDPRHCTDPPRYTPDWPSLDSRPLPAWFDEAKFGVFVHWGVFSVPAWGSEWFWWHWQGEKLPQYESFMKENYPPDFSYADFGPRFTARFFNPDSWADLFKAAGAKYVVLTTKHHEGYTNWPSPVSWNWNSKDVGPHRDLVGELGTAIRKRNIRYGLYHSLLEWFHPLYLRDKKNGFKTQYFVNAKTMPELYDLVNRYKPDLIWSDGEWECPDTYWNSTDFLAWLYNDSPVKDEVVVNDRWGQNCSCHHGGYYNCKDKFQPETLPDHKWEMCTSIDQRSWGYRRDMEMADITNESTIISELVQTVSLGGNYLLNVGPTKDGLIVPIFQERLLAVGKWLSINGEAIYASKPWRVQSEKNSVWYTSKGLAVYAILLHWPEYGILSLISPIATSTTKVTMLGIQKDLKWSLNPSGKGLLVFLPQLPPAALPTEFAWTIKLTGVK
Description: as §1, §2

α-D-mannosidase = biological target: T4, α-D-mannosidase (Canavalia ensiformis, UniProt C0HJB3); assay: Glycosidase inhibition: α-D-mannosidase; type: biochemical, Jack beans (Canavalia ensiformis)
T4 construct: purchased Sigma
T4 sequence (C0HJB3 whole entry): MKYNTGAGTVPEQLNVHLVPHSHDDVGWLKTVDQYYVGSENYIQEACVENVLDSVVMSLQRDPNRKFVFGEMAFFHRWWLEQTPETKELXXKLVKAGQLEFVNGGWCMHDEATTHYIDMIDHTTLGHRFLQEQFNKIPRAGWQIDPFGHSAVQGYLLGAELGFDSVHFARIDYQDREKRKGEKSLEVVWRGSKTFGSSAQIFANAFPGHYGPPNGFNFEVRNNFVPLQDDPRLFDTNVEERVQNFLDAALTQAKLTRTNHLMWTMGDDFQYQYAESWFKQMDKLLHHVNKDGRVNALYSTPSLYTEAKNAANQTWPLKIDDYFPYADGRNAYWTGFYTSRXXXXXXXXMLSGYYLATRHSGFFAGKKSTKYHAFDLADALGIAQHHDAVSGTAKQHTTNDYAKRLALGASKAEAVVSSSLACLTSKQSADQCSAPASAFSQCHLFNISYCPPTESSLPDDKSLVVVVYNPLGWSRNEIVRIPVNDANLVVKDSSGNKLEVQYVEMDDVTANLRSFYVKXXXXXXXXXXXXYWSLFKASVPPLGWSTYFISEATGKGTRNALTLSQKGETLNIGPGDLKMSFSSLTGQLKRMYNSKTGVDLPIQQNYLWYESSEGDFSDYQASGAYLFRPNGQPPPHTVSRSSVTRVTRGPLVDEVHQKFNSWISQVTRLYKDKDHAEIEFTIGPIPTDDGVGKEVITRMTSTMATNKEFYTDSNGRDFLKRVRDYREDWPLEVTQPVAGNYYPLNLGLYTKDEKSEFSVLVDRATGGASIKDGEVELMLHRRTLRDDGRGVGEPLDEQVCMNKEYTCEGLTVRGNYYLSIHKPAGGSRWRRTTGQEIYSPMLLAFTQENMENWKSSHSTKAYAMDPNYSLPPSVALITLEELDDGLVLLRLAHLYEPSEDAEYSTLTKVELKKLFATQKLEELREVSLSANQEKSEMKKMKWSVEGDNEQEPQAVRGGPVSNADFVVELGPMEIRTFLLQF
Description: All enzymes were purchased from Sigma, as were the appropriate p-nitrophenyl substrates. Assays were carried out in microtitre plates. Enzymes were assayed in 0.1M citric acid/0.2M di-sodium hydrogen phosphate (McIlvaine) buffers at the optimum pH for the enzyme. All assays were carried out at 20° C.
Endpoint absorbances were read at 405 nm with a Biorad microtitre plate reader (Benchmark). Water was substituted for the inhibitors in the blanks.

α-D-glucosidase [3] = biological target: T5, α-D-glucosidase (Saccharomyces cerevisiae, UniProt P53341); assay: Glycosidase inhibition (p-nitrophenyl substrate): α-D-glucosidase, yeast; type: biochemical, Saccharomyces cerevisiae (Baker's yeast); conditions: 1 mg/ml
T5 construct: purchased Sigma
T5 sequence (P53341 whole entry): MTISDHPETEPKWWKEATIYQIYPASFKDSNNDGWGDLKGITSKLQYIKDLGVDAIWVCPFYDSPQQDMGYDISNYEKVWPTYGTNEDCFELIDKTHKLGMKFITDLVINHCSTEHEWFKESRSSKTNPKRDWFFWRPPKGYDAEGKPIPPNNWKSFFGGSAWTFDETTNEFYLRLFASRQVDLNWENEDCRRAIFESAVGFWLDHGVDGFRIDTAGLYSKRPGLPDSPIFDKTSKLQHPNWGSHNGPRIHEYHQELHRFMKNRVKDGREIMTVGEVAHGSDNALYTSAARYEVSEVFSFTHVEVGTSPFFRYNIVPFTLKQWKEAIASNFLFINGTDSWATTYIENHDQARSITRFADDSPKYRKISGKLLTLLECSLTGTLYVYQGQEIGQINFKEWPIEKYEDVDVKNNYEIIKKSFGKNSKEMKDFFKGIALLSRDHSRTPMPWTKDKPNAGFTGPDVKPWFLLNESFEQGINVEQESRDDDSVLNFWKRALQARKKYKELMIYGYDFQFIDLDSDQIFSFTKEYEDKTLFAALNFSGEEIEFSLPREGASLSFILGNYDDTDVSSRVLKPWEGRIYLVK
Description: as §1, §2

[4] = tested on: N-acetyl-β-D-glucosaminidase; assay: Glycosidase inhibition: N-acetyl-β-D-glucosaminidase; type: biochemical, Bovine; conditions: 1 mg/ml
Description: as §1, §2

β-D-galactosidase = assay: Glycosidase inhibition: β-D-galactosidase; type: biochemical, Bovine; conditions: 1 mg/ml
Description: as §1, §2

HSV-1 (SC16) = conditions: versus infected untreated group
[5] = 1 mg/ml, read-out: % inhibition, gluc (rice)
[6] = read-out: % inhibition, galactosidase
[7] = 1 mg/ml, read-out: % inhibition, fucosidase
[8] = read-out: % inhibition, mannosidase
[9] = read-out: % inhibition, gluc (yeast)
[10] = read-out: % inhibition, α-gluc (rice)
[11] = read-out: % inhibition, α-mannosidase
[12] = read-out: % inhibition, α-gluc (yeast)
[13] = 1 mg/ml, read-out: % inhibition, α-galactosidase
[14] = read-out: % inhibition, α-fucosidase
[15] = 1 mg/ml, read-out: % inhibition, α-gluc (rice)
[16] = 1 mg/ml, read-out: % inhibition, α-fucosidase

Compound | inhibition at 1000 µg/mL (α-D-glucosidase [1]; [5]) [%] | % inhibition, gluc (Bacillus) (α-D-glucosidase [2]) [%] | % inhibition, glucosidase (β-D-glucosidase) [%] | % inhibition, Naringinase (Naringinase) [%] | % inhibition, N-acetyl-β-gluc [4] [%] | % inhibition, β-galactosidase (β-D-galactosidase) [%] | inhibition at 1000 µg/mL (α-D-mannosidase; [11]) [%] | inhibition at 1000 µg/mL (α-D-glucosidase [3]; [12]) [%] | % inhibition, α-gluc (Bacillus) (α-D-glucosidase [2]) [%] | % inhibition, β-glucosidase (β-D-glucosidase) [%] | inhibition at 1000 µg/mL (α-D-galactosidase; [13]) [%] | inhibition at 1000 µg/mL (α-D-glucosidase [1]; [15]) [%] | inhibition at 1000 µg/mL (α-L-fucosidase; [16]) [%] | also measured
OC[C@H]1NC[C@H](O)[C@@H](O)[C@@H]1O [1-Deoxynojirimycin (DNJ) (21), 1-Deoxynojirimycin] | – | – | – | – | – | – | – | – | – | – | – | – | – | IFN-γ secretion/production in splenocytes (spleen cells): inhibited
OC[C@@H]1[C@@H](O)[C@H](O)[C@H]2[C@@H](O)[C@@H](O)CN21 [7-epi-casuarine (11), 7-epi-casuarine] | 73 | 5 | 30 | −4 | – | – | – | – | – | – | – | – | – | inhibition at 1000 µg/mL (α-D-galactosidase; [6]): 1%; inhibition at 1000 µg/mL (α-L-fucosidase; [7]): 25%
OC[C@H]1[C@@H](O)[C@H](O)[C@H]2[C@@H](O)[C@H](O)CN21 [Compound 12, 3,6,7-triepi-casuarine] | 0 | 9 | 6 | 0 | 19 | – | – | – | – | – | – | – | – | inhibition at 1000 µg/mL (α-D-mannosidase; [8]): 8%; inhibition at 1000 µg/mL (α-D-glucosidase [3]; [9]): 2%; inhibition at 1000 µg/mL (α-D-galactosidase; [6]): 2%; inhibition at 1000 µg/mL (α-L-fucosidase; [7]): -11%
OC[C@H]1[C@@H](O)[C@H](O)[C@@H]2[C@@H](O)[C@H](O)CN21 [Compound 21, 3,6,7,7a-tetraepi-casuarine] | 46 | −2 | 44 | 5 | 27 | – | – | – | – | – | – | – | – | inhibition at 1000 µg/mL (α-D-mannosidase; [8]): 1%; inhibition at 1000 µg/mL (α-D-galactosidase; [6]): -3%
OC[C@H]1[C@@H](O)[C@H](O)[C@@H]2[C@@H](O)[C@@H](O)CN21 [Compound 22, 3,7,7a-triepi-casuarine] | 0 | 87 | 52 | 10 | – | – | – | – | – | – | – | – | – | inhibition at 1000 µg/mL (α-D-glucosidase [3]; [9]): 29%
O[C@@H]1[C@@H]2[C@@H](O)[C@H](O)[C@H](O)CN2C[C@H]1O [Compound 35, 2-α-hydroxy-6-epi-castanospermine] | – | – | – | 0 | 20 | −1 | 11 | -5 | −12 | −3 | -5 | – | – | inhibition at 1000 µg/mL (α-D-glucosidase [1]; [10]): 61%; inhibition at 1000 µg/mL (α-L-fucosidase; [14]): 0%
OC[C@H]1N[C@H](c2ccc(O)cc2)[C@@H](O)[C@@H]1O [Compound 36, PLB1] | – | – | – | 41 | 30 | 52 | 42 | 19 | 62 | 52 | 43 | 54 | 13 | –
O[C@@H]1[C@@H]2[C@@H](O)[C@H](O)[C@@H](O)CN2C[C@@H]1O [Compound 44, 2-β-hydroxycastanospermine] | – | – | – | 6 | 13 | −1 | 1 | 8 | – | 20 | -4 | – | – | –
OCCN1C[C@@H](O)[C@H](O)[C@H]1CO [Compound 55, N-hydroxyethyl-1,4-dideoxy-1,4-imino-D-arabinitol] | – | – | – | 44 | 6 | 13 | 5 | -3 | 15 | 44 | 4 | 71 | -7 | –
O[C@@H]1[C@@H]2[C@@H](O)[C@H](O)[C@@H](O)CN2C[C@H]1O [Compound 64, 2-α-hydroxycastanospermine] | – | – | – | 76 | 21 | −3 | 21 | -6 | −15 | −1 | -9 | – | – | inhibition at 1000 µg/mL (α-D-glucosidase [1]; [10]): 12%; inhibition at 1000 µg/mL (α-L-fucosidase; [14]): 4%
COc1cc([C@H]2N[C@H](CO)[C@@H](O)[C@@H]2O)ccc1O [Compound 65, PLB2] | – | – | – | 4 | 0 | 18 | -16 | 37 | 37 | 25 | 4 | 0 | -4 | –
OCC1N[C@H](CO)[C@@H](O)[C@@H]1O (stereo partly drawn) [DMDP, 2,6-dihydroxymethyl-3,4-dihydroxypyrrolidine] | – | – | – | 0 | 25 | 71 | 25 | 74 | 85 | 81 | -3 | 91 | -4 | –
CC(=O)OCC(CCn1cnc2cnc(N)nc21)COC(C)=O [famciclovir, reference compound] | – | – | – | – | – | – | – | – | – | – | – | – | – | ear thickness response (HSV-1 (SC16)): almost completely negated
